Laboratory results as given in US4468469A, “Substituted phenylacetic acids and salts as TBP blocking agents in iodothyronine immunoassays” (Miles Laboratories, Inc., priority 1982, dated 1984).

Columns and labels:
[1] = test system: rabbit antiserum to thyroxine / dihydrofolate reductase; assay: Enzyme inhibitor-labeled immunoassay for thyroxine in serum; assay type: biochemical; conditions: 0.5 mM fenclofenac in antibody reagent; for Absorbance Change per Minute: 340 nm
Description: An enzyme inhibitor-labeled immunoassay (U.S. Pat. No. 4,134,792) for thyroxine in serum was conducted using fenclofenac as the TBP blocking agent. Serum standards in 40 μl aliquots containing known concentrations of thyroxine were combined with 0.2 ml of an antibody reagent consisting of 21 μl rabbit antiserum to thyroxine in 1 ml of 0.1M sodium phosphate buffer, pH 6.5, containing 0.3M potassium chloride, 0.05% sodium azide, and 0.5 mM fencolfenac. After a 30 second incubation, to each mixture was added 0.2 ml of a conjugate reagent consisting of 0.63 mg/ml NADPH (0.65 mM), 0.0175 μM of a methotrexate-thyroxine conjugate [prepared as described in the U.S. patent application filed on even date herewith, assigned to the present assignee, entitled "Methotrexate-LabeledIodothyronine Conjugates Ser. No. 318,028, which application is incorporated herein by reference] in 10 mM sodium carbonate buffer, pH 9.5. […] After a further 5 minute incubation, to each mixture was added 50 μl of 2.5 mM dihydrofolate in 0.1M Tris.HCl, pH 8.5. Forty-five (45) seconds later, the absorbance of each solution at 340 nm was read over a 1 minute period.

[2] = test system: anti(thyroxine) antiserum / apoglucose oxidase; assay: Apoenzyme reactivation immunoassay system for serum thyroxine; assay type: biochemical; conditions: 2 mM sodium salt of dissociating agent in buffer
Description: Standard curves for serum thyroxine were generated using a semiautomated assay protocol on the Gilford Clinical Chemistry Analyzer System 203-S (Gilford Instrument Laboratories, Oberline, OH, USA). […] The FAD-thyroxine conjugate (40 nM in 0.1M sodium phosphate, pH 7.0, 0.01% Triton X-100) as a 0.05 ml aliquot was added to the reaction cup and allowed to equilibrate for 30 seconds. The reaction was initiated by addition of 0.10 ml 1.0 μM apoglucose oxidase, 2 mM 4-aminoantipyrine, 12% glycerol, 80 mM sodium phosphate, pH 7.0. The absorbance at 520 nm was recorded after an 8 minute incubation.

[3] = test system: antiserum to thyroxine / phosphodiesterase; assay: Enzyme substrate-labeled immunoassay for thyroxine; assay type: biochemical; conditions: 75 μl of 60 mM fenclofenac
Description: The following reagents were assembled:
Reagent A: 50 mM Bicine buffer with 0.1% sodium azide, pH 8.5
Reagent B: 60 mM fenclofenac in 0.5N sodium hydroxide
Reagent C: thyroxine standards with concentrations of 0, 2, 4, 6, 8, 10, 12, 16 and 20 μg/dl prepared by adding thyroxine (Sigma) to thyroxine free serum.
Reagent D: antibody/enzyme reagent containing 50 μl antiserum per ml and 0.12 units per ml of phosphodiesterase (Sigma, Type VII) in Bicine buffer.
Reagent E: 1.24 μM of the labeled conjugate (Part A above) in 5 mM formate, 0.1% sodium azide buffer, pH 3.5.
The assay protocol involved adding 75 μl of Reagent B and 0.5 ml of Reagent A to a cuvette, followed by 75 μl of an appropriate Reagent C and another 0.5 ml of Reagent A, and finally 75 μl of Reagent D and a third 0.5 ml of Reagent A. After a 1 hour incubation at room temperature, the assay reaction was started by adding 75 μl of Reagent E and 0.5 ml of Reagent A to the cuvette. The fluorescence (excitation=360 nm, emission=450 nm) was measured 20 minutes after addition of Reagent E.

apoglucose oxidase = apoglucose oxidase (Aspergillus niger, UniProt P13006); assay: Activation of apoglucose oxidase by FAD-theophylline conjugate (fenclofenac); assay type: biochemical; conditions: 5 min, 37° C., read-out: Percent Apoglucose Oxidase Activity
Description: A series of apoenzyme reactivation measurements were set up with different concentrations of fenclofenac. The assays were performed at 37° C. and the final reagent concentrations in 0.1M phosphate buffer, pH 7.0, were 1.0 nanomolar (nM) FAD-labeled conjugate (an FAD-theophylline conjugate as described in U.S. Pat. No. 4,238,565), 50 nM apoglucose oxidase (U.S. Pat. No. 4,268,631), 2.5 μl/ml anti(glucose oxidase) antiserum, 2 mM sodium dichlorohydroxybenzene sulfonate (DHSA), 0.2 mM 4-aminoantipyrine, 0.1M glucose, 20 μg/ml peroxidase, and 0.1% (w/v) bovine serum albumin. The apoenzyme and anti(glucose oxidase) were preincubated and the reaction then started by simultaneously mixing in the other reagents. The reaction mixtures were incubated for 5 minutes and then absorbance at 520 nm read. The results shown in Table 4 relate fenclofenac concentration to the generation of active glucose oxidase.

[4] = test system: serum proteins (thyroxine binding protein, TBP); assay: Dissociation of thyroxine from human serum, first experiment (Sephadex LH-20 column, pH 6.5)
Description: Approximately 3 milliliters (ml) of human serum was allowed to equilibrate with radioactive iodine-labeled thyroxine (^125 I-thyroxine obtained from Amersham-Searle, Arlington Heights, Ill., USA) for about 8 hours.
Then 100 microliter (μl) aliquots of this serum were combined with 300 μl aliquots of 0.1 molar (M) sodium phosphate buffer, pH 6.5, containing various concentrations of fenclofenac (British Pat. No. 1,308,327; example 6). Then 180 μl aliquots of each of these mixtures were applied to 2 ml columns of Sephadex LH-20 (Pharmacia Fine Chemicals, Piscataway, N.J. USA) equilibrated with 0.1M sodium phosphate buffer, pH 6.5. The radioactivity on the columns was measured and the columns were washed with 5 ml of the buffer. The radioactivity of each column was measured again and the results (shown below in Table 1) used as estimates of thyroxine dissociated from serum proteins.

Sequence of apoglucose oxidase (P13006 17-605): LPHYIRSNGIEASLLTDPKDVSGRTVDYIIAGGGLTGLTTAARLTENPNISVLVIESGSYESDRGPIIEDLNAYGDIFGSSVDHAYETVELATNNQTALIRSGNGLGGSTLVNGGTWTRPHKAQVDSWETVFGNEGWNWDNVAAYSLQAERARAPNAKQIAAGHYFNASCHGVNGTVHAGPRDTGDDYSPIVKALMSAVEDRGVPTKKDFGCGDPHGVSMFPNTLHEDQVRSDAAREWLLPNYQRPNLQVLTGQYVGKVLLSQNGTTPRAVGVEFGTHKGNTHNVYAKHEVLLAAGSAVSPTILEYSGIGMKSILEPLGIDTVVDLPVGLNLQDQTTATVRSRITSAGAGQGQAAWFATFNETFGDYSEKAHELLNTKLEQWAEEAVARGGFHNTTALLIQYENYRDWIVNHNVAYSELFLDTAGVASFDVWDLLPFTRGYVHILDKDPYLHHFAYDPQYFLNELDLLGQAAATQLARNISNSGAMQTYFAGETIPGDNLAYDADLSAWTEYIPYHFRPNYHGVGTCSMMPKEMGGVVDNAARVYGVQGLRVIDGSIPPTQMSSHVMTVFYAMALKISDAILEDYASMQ

O=C(O)Cc1ccccc1Oc1ccc(Cl)cc1Cl [Fenclofenac, 2-(2,4-dichlorophenoxy)phenylacetic acid]
interference with the spectrophotometric response at 340 nm or the enzymatic reaction [1]: did not substantially interfere | Absorbance Change per Minute ([1]; thyroxine standard 0 μg/dL): 0.1682 | Absorbance Change per Minute ([1]; thyroxine standard 1.0 μg/dL): 0.1659 | Absorbance Change per Minute ([1]; thyroxine standard 2.5 μg/dL): 0.1648 | Absorbance Change per Minute ([1]; thyroxine standard 10. μg/dL): 0.1571 | Absorbance Change per Minute ([1]; thyroxine standard 20. μg/dL): 0.1498 | Absorbance (520 nm) ([2]; Thyroxine Standard 0 μg/L): 0.797 | Absorbance (520 nm) ([2]; Thyroxine Standard 25 μg/L): 0.823 | Absorbance (520 nm) ([2]; Thyroxine Standard 75 μg/L): 0.893 | Absorbance (520 nm) ([2]; Thyroxine Standard 125 μg/L): 0.965 | Absorbance (520 nm) ([2]; Thyroxine Standard 200 μg/L): 1.078 | fluorescence units ([3]; thyroxine standard 0 μg/dl, excitation 360 nm, emission 450 nm): 24.9 fluorescence units | fluorescence units ([3]; thyroxine standard 2 μg/dl): 25.5 fluorescence units | fluorescence units ([3]; thyroxine standard 4 μg/dl): 26.4 fluorescence units | fluorescence units ([3]; thyroxine standard 6 μg/dl): 27.2 fluorescence units | fluorescence units ([3]; thyroxine standard 8 μg/dl): 26.7 fluorescence units | fluorescence units ([3]; thyroxine standard 10 μg/dl): 27.1 fluorescence units | fluorescence units ([3]; thyroxine standard 12 μg/dl): 30.0 fluorescence units | fluorescence units ([3]; thyroxine standard 16 μg/dl): 30.1 fluorescence units | fluorescence units ([3]; thyroxine standard 20 μg/dl): 30.8 fluorescence units | activity at 500 µM (apoglucose oxidase; pH 7, 0.5 mM fenclofenac): 81% | activity at 1000 µM (apoglucose oxidase; pH 7, 1.0 mM fenclofenac): 66% | activity at 1500 µM (apoglucose oxidase; pH 7, 1.5 mM fenclofenac): 61% | activity at 2000 µM (apoglucose oxidase; pH 7, 2.0 mM fenclofenac): 64% | activity at 2500 µM (apoglucose oxidase; pH 7, 2.5 mM fenclofenac): 47% | Percent Thyroxine Dissociated ([4]; 0.25 mM fenclofenac): 50% | Percent Thyroxine Dissociated ([4]; 0.50 mM fenclofenac): 72% | Percent Thyroxine Dissociated ([4]; 1.0 mM fenclofenac): 79% | Percent Thyroxine Dissociated ([4]; 2.0 mM fenclofenac): 98% | Percent Thyroxine Dissociated ([4]; 5.0 mM fenclofenac): 100%
